The source made the active and inactive calls.
Columns and labels:
[1] = molecular target: Peroxisome proliferator-activated receptor gamma/Nuclear receptor coactivator 1 (Homo sapiens, UniProt P37231); experiment: (§1) TR-FRET dose response biochemical High Throughput Screening assay for agonists of the steroid receptor coactivator 1 (SRC-1) recruitment by the peroxisome proliferator-activated receptor gamma (PPAR gamma): non-selective agonists. [Related pubchem assays (depositor defined):AID1300, AID1808, AID504735, AID631]; assay type: protein assay
[2] = molecular target: Peroxisome proliferator-activated receptor gamma/Nuclear receptor coactivator 3 (Homo sapiens, UniProt P37231); experiment: as §1, with “3 (SRC-3)” for “1 (SRC-1)”, “assays: 1301 (Confirmation screen.), 1048 (Primary screen.)]” for “assays (depositor defined):AID1300, AID1808, AID504735, AID631]”; assay type: functional
[3] = molecular target: Peroxisome proliferator-activated receptor gamma/Nuclear receptor coactivator 2 (Homo sapiens, UniProt P37231); experiment: TR-FRET dose response biochemical High Throughput Screening assay for agonists of the steroid receptor coactivator 2 (SRC-2) recruitment by the peroxisome proliferator-activated receptor gamma (PPAR gamma): non-selective agonists. [Related pubchem assays: 1297, 1032 ]; assay type: functional
[4] = molecular target: T1, Intestinal-type alkaline phosphatase (Homo sapiens, UniProt P09923); experiment: human intestinal alkaline phosphatase activators, dose response, biochemical, luminescence, uHTS hits (AID 463120); assay type: functional
T1 sequence (P09923 whole entry): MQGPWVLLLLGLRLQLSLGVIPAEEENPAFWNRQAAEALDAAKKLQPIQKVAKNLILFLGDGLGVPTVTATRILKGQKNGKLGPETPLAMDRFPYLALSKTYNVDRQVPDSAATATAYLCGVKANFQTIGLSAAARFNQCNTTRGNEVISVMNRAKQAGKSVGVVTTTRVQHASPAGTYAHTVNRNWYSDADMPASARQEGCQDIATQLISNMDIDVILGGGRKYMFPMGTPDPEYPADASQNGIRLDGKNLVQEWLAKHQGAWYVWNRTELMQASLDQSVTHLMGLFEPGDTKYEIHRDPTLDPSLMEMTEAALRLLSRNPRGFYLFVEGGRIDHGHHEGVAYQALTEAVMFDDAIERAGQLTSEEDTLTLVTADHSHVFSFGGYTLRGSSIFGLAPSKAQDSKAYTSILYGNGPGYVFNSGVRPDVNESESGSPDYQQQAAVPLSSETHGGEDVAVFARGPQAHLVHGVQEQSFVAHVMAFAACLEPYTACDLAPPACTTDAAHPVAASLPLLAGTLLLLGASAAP

Cytochrome P450 2C19 = Cytochrome P450 2C19 (Homo sapiens, UniProt P33261); experiment: Cytochrome panel assay with activity outcomes. Panel member name: p450-cyp2c19 Compounds with AC50 equal or less than 10 uM are considered active; assay type: functional
Chain of Cytochrome P450 2C19 (P33261 whole entry): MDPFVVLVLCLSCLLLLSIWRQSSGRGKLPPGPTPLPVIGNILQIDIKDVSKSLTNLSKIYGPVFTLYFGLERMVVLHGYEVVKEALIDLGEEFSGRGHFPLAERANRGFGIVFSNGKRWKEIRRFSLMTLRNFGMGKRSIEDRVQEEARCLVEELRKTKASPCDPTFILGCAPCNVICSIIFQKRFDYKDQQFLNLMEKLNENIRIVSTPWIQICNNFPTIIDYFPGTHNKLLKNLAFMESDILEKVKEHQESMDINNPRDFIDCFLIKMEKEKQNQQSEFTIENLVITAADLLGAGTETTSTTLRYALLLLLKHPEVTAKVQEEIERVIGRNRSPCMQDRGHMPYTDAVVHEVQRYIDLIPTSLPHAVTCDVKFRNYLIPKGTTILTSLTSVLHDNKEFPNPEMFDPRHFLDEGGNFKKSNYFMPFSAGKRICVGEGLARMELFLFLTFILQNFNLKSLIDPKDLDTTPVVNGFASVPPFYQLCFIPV

Cytochrome P450 1A2 = molecular target: T2, Cytochrome P450 1A2 (Homo sapiens, UniProt P05177);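 also: PubChem cytochrome P450 panel assay, CYP1A2 panel member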
T2 sequence (P05177 whole entry): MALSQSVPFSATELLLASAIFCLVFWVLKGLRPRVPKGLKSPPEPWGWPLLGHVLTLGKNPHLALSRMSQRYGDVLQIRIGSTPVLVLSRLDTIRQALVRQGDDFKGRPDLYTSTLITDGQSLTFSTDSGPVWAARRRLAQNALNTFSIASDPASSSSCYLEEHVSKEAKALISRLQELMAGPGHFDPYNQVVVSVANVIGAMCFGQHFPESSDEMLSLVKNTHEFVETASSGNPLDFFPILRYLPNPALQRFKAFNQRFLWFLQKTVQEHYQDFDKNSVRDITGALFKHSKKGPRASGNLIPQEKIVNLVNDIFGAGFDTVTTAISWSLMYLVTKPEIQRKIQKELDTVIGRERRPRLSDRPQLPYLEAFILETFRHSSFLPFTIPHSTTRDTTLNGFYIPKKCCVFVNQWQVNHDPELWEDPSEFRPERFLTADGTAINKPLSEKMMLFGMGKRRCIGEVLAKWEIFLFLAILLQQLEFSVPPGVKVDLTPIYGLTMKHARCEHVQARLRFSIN

Cytochrome P450 2D6 = Cytochrome P450 2D6 (Homo sapiens, UniProt P10635);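 also: CYP2D6 member of a cytochrome P450 panel assay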
Chain of Cytochrome P450 2D6 (P10635 whole entry, the tested form may be a part): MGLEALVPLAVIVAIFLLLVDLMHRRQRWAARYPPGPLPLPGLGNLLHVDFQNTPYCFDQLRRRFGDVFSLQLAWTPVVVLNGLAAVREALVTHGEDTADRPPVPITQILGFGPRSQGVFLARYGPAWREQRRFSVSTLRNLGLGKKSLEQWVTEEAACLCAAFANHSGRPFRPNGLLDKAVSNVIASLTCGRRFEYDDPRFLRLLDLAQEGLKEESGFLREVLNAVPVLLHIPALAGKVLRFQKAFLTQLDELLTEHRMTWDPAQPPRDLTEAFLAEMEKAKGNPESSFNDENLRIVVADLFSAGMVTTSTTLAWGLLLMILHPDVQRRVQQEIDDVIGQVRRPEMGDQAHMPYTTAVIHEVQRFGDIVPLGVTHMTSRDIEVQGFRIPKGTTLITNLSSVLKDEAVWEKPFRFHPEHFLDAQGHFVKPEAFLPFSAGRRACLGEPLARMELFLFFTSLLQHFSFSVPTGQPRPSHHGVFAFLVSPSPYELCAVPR

[5] = molecular target: T3, RNA-binding protein pos-1 (Caenorhabditis elegans, UniProt G5EF15); experiment: disruptors of C. elegans POS-1 RNA interaction – biochemical, fluorescence polarization, dose response (AID 1964);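 also: purified POS-1 fused to maltose binding protein made in E. coli; potency of compounds blocking POS-1 binding to fluorescent RNA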
T3 sequence (G5EF15 whole entry): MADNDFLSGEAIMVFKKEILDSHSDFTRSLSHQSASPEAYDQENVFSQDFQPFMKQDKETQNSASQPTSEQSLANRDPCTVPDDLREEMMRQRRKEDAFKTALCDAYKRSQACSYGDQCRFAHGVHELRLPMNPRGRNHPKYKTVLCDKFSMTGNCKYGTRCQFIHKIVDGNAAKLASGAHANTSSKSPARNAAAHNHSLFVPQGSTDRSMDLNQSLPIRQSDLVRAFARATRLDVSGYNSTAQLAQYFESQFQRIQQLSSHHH

[6] = molecular target: T4, Zinc finger protein mex-5 (Caenorhabditis elegans, UniProt Q9XUB2); experiment: potency of MEX-5 RNA-binding blockers – biochemical, C. elegans, fluorescence polarization, dose response (AID 1960)
T4 sequence (Q9XUB2 whole entry): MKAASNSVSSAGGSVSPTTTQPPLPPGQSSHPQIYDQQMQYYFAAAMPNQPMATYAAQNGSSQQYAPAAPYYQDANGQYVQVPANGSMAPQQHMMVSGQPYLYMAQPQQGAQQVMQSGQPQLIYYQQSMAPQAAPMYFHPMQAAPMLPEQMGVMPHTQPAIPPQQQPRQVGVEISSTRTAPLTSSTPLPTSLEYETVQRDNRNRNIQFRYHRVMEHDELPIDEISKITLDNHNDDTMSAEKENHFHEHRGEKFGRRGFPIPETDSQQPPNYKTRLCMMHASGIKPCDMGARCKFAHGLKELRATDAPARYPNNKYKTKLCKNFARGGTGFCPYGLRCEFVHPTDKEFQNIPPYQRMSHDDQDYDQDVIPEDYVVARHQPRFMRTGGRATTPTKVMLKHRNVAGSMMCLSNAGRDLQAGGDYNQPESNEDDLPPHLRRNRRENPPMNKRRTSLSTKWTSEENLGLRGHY

Large T antigen = Large T antigen (Simian virus 40, UniProt P03070); assay type: functional, Betapolyomavirus macacae;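 also: Confirmatory-stage PubChem screen for compounds that inhibit SV40 T antigen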
Chain of Large T antigen (P03070 whole entry): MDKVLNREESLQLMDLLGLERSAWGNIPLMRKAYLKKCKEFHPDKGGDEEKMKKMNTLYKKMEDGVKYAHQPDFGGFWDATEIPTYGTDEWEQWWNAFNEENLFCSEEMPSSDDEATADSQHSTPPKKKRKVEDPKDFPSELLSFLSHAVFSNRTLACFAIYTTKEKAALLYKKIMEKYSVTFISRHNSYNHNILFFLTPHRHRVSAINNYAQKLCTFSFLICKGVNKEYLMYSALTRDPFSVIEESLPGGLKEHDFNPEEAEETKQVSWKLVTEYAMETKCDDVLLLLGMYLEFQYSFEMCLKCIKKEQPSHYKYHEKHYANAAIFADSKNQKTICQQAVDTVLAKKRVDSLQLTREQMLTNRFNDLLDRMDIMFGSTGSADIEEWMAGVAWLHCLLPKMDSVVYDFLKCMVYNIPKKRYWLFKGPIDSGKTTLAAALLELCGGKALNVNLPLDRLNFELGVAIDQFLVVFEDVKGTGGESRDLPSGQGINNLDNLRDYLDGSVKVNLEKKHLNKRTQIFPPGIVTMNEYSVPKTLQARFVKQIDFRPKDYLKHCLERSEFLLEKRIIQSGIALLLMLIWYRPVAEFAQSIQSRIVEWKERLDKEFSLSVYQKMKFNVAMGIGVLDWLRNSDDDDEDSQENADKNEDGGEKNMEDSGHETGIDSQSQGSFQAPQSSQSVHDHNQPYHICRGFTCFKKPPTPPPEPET

[7] = molecular target: Intestinal-type alkaline phosphatase (Mus musculus, UniProt P24822); experiment: PubChem AID 488785; assay type: functional
Chain of Intestinal-type alkaline phosphatase (Mus musculus, UniProt P24822) (P24822 whole entry): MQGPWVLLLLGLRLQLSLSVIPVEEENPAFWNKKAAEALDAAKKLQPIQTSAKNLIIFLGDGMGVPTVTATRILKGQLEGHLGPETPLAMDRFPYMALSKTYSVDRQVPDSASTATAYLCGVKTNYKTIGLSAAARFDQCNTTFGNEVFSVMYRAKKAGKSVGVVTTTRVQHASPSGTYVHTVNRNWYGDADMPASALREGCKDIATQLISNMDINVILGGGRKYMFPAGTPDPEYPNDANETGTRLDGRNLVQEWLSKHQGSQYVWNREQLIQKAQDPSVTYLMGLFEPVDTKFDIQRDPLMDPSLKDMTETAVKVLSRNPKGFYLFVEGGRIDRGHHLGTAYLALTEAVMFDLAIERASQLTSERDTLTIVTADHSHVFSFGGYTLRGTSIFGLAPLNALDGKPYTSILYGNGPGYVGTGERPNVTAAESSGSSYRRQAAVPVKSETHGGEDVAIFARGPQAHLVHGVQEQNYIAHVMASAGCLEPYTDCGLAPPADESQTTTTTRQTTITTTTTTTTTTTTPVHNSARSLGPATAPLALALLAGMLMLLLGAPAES

[8] = molecular target: T5, Alkaline phosphatase, tissue-nonspecific isozyme (Homo sapiens, UniProt P05186); experiment: TNAP enzyme inhibition by screening hits, dose response, selectivity assay for mouse IAP inhibitor project, biochemical, human TNAP, uHTS hits (AID 488906); assay type: functional
T5 sequence (P05186 whole entry): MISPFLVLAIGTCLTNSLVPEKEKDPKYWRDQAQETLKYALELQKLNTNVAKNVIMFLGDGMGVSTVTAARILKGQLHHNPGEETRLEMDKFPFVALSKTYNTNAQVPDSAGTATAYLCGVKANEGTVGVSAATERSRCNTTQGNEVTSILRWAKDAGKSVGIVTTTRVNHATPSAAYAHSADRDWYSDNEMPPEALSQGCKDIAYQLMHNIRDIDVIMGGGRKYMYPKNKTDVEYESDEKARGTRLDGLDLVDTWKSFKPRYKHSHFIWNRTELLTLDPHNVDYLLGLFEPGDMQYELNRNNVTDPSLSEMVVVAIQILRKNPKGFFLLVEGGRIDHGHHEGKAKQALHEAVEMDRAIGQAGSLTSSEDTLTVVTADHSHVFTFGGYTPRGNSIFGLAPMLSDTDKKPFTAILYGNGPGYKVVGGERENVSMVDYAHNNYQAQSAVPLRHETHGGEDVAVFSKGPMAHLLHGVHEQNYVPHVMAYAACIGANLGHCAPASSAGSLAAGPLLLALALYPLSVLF

[9] = molecular target: T1, Intestinal-type alkaline phosphatase; experiment: inhibition of human intestinal alkaline phosphatase – biochemical, dose response (AID 488876); assay type: functional
[10] = molecular target: Hepatocyte nuclear factor 4-alpha (Homo sapiens, UniProt P41235); assay type: functional, cell-based;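 also: biochemical luminescence-based dose-response counterscreen measuring inhibition of HNF4 dimerization, run alongside a screen for blockers of ABHD5–perilipin-5 interaction; split luciferase complementation of HNF4 fusion proteins in cell lysate measuring dimerization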
Chain of Hepatocyte nuclear factor 4-alpha (P41235 whole entry, the tested form may be a part): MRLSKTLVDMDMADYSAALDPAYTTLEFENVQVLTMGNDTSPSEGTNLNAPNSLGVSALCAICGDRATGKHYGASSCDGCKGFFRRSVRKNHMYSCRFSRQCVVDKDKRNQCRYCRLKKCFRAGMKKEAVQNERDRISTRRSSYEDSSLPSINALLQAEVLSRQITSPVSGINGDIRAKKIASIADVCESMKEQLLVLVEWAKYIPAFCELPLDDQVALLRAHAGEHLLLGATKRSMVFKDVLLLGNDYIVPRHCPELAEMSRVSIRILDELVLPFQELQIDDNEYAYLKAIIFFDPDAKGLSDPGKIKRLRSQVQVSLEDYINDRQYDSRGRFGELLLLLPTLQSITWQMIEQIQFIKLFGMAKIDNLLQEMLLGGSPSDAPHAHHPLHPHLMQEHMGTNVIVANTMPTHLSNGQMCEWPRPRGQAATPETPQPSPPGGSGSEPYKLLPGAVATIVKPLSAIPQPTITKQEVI

[11] = molecular target: T6, G-protein coupled receptor 35 (Homo sapiens, UniProt Q9HC97); experiment: SAR analysis of Agonists of the GPR35 Receptor using an Image-Based Assay - Set 4. [Related pubchem assays (depositor defined):AID2013, AID2026]; assay type: functional
T6 sequence (Q9HC97 whole entry): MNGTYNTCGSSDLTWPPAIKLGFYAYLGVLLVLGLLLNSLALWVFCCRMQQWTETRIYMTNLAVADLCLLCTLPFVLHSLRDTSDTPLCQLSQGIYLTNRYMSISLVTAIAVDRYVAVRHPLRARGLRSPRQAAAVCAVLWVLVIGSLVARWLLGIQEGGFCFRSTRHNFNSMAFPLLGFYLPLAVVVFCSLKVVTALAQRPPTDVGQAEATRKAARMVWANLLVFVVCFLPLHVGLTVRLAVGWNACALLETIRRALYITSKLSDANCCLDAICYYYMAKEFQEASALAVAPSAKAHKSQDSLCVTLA

Cannabinoid receptor 1 [12] = molecular target: T7, Cannabinoid receptor 1 (Homo sapiens, UniProt P21554); experiment: SAR analysis of agonists of the Cannabinoid Receptor 1 using an Image-Based Assay - Set 4. [Related pubchem assays (depositor defined):AID2013, AID2026]; assay type: functional
T7 sequence (P21554 whole entry): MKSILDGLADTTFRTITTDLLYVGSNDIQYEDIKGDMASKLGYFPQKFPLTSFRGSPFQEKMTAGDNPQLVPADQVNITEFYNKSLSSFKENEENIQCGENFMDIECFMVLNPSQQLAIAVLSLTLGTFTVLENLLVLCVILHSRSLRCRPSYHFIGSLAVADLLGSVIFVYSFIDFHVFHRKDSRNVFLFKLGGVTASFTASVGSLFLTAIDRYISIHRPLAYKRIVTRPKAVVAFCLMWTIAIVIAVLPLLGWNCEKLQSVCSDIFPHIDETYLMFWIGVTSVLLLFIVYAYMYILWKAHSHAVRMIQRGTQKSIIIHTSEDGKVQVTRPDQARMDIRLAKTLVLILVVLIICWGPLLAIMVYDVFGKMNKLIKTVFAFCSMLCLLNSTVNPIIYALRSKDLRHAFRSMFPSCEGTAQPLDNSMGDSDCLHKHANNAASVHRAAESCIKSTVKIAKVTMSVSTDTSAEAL

[13] = molecular target: T6, G-protein coupled receptor 35; experiment: SAR analysis of Antagonists of the GPR35 Receptor using an Image-Based Assay - Set 6. [Related pubchem assays (depositor defined):AID2013, AID2026]; assay type: functional
Cannabinoid receptor 1 [14] = molecular target: T7, Cannabinoid receptor 1; experiment: SAR analysis of antagonists of the Cannabinoid Receptor 1 using an Image-Based Assay - Set 4. [Related pubchem assays (depositor defined):AID2013, AID2026]; assay type: functional
[15] = molecular target: T8, G-protein coupled receptor 55 (Homo sapiens, UniProt Q9Y2T6); experiment: SAR Analysis of Selective Antagonists of GPR55 using an Image-Based Assay - Set 4. [Related pubchem assays (depositor defined):AID2013, AID2026]; assay type: functional
T8 sequence (Q9Y2T6 whole entry): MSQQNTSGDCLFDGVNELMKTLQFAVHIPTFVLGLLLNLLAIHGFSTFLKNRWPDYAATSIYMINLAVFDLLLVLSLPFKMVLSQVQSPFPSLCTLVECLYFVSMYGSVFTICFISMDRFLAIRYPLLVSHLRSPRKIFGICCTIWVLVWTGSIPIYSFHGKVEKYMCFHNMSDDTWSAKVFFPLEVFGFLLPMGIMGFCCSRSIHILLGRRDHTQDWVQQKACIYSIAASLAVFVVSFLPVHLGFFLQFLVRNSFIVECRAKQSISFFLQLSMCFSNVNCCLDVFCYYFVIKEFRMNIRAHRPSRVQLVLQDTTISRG

Cannabinoid receptor 2 [16] = molecular target: T9, Cannabinoid receptor 2 (Homo sapiens, UniProt P34972); experiment: SAR analysis of antagonists of the Cannabinoid Receptor 2 using an Image-Based Assay - Set 3. [Related pubchem assays (depositor defined):AID2013, AID2026]; assay type: functional
T9 sequence (P34972 whole entry): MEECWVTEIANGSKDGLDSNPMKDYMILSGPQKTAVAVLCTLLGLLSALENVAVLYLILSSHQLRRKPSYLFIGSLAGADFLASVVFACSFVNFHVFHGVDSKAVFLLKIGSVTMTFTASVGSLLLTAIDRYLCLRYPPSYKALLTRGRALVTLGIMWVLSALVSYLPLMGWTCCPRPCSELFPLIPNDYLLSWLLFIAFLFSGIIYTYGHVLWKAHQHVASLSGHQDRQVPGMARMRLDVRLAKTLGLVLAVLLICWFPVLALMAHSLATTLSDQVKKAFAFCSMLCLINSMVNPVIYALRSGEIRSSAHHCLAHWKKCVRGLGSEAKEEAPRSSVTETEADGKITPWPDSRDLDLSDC

Cannabinoid receptor 2 [17] = molecular target: T9, Cannabinoid receptor 2; experiment: SAR analysis of agonists of the Cannabinoid Receptor 2 using an Image-Based Assay - Set 3. [Related pubchem assays (depositor defined):AID2013, AID2026]; assay type: functional
[18] = molecular target: Voltage-dependent T-type calcium channel subunit alpha-1H (Homo sapiens, UniProt O95180); experiment: human CACNA1H calcium influx blockade – cell-based, synthetic library set 2, HEK293 HH8, Fluo-4, SAR follow-up (AID 493023); assay type: functional
[19] = molecular target: T8, G-protein coupled receptor 55; experiment: inhibition of LPI-stimulated GPR55 beta-arrestin translocation – imaging, U2OS, beta-arrestin-GFP, LPI agonist, primary screen (AID 2013); assay type: functional;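 also: antagonist potency measured as reduced agonist-driven arrestin aggregation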
Cannabinoid receptor 1 [20] = molecular target: T7, Cannabinoid receptor 1; experiment: SAR analysis of antagonists of the Cannabinoid Receptor 1 using an Image-Based Assay - Set 2. [Related pubchem assays (depositor defined):AID2013, AID2026]; assay type: functional
[21] = molecular target: T6, G-protein coupled receptor 35; experiment: SAR analysis of Agonists of the GPR35 Receptor using an Image-Based Assay - Set 2. [Related pubchem assays (depositor defined):AID2013, AID2026]; assay type: functional
Cannabinoid receptor 2 [22] = molecular target: T9, Cannabinoid receptor 2; experiment: SAR analysis of antagonists of the Cannabinoid Receptor 2 using an Image-Based Assay. [Related pubchem assays (depositor defined):AID2013, AID2026]; assay type: functional
Cannabinoid receptor 1 [23] = molecular target: T7, Cannabinoid receptor 1; experiment: SAR analysis of agonists of the Cannabinoid Receptor 1 using an Image-Based Assay - Set 2. [Related pubchem assays (depositor defined):AID2013, AID2026]; assay type: functional
[24] = molecular target: T6, G-protein coupled receptor 35; experiment: SAR analysis of Antagonists of the GPR35 Receptor using an Image-Based Assay - Set 3. [Related pubchem assays (depositor defined):AID2013, AID2026]; assay type: functional
[25] = molecular target: T8, G-protein coupled receptor 55; experiment: blockade of LPI-induced GPR55 arrestin translocation – imaging, U2OS, beta-arrestin-GFP, LPI agonist, set 2, SAR follow-up (AID 2820); assay type: functional
Cannabinoid receptor 2 [26] = molecular target: T9, Cannabinoid receptor 2; experiment: SAR analysis of agonists of the Cannabinoid Receptor 2 using an Image-Based Assay. [Related pubchem assays (depositor defined):AID2013, AID2026]; assay type: functional
[27] = molecular target: T10, Microphthalmia-associated transcription factor (Homo sapiens, UniProt O75030); experiment: reducers of TRPM1 reporter luminescence, concentration series – cell-based, SK-MEL-5, cherry-picked, set 3, MITF inhibitor project, dose response (AID 493073); assay type: functional;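 also: SK-MEL-5 melanoma cells with luciferase driven by the MITF target TRPM1 promoter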
T10 sequence (O75030 whole entry): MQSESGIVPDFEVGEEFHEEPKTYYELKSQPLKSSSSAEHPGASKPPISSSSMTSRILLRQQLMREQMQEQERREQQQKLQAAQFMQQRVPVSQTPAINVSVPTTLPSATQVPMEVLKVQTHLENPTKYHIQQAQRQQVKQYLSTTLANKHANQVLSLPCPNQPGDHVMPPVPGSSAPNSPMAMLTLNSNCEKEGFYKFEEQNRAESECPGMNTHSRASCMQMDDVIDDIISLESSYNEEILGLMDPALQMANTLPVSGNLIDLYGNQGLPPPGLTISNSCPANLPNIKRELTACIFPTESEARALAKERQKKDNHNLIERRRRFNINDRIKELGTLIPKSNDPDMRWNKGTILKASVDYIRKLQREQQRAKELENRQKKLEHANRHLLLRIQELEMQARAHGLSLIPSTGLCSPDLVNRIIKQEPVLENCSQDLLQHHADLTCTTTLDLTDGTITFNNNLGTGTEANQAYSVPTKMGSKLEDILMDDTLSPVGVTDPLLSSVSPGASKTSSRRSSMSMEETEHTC

A-375 = experiment: MITF: Counter assay: A375 proliferation Measured in Cell-Based System Using Plate Reader - 2084-03_Inhibitor_Dose_DryPowder_Activity. [Related pubchem assays (depositor defined):AID488944]; assay type: functional; conditions: Homo sapiens

COc1ccc2c(c1)nc(SCC(=O)c1ccc(Br)s1)n2C
EC50 [1]: > 79.4 µM (inactive)
EC50 [2]: > 79.4 µM (not active)
EC50 [3]: 27.7 µM (not active)

COc1ccc(C(=O)Nc2cccc3c2C(=O)NC3=O)cc1S(=O)(=O)N1CCOCC1
EC50 [4]: > 100 µM (inactive)
AC50 (Cytochrome P450 2C19): inconclusive
AC50 (Cytochrome P450 1A2): 1 µM (inconclusive)
AC50 (Cytochrome P450 2D6): inconclusive

CN1C(=O)/C(=C/C=C/c2ccco2)C(=O)NC1=S
EC50 [5]: 33.5 µM (active)
EC50 [6]: 37.5 µM (active)
IC50 (Large T antigen): 11.9 µM (active)
IC50 [7]: 11.8 µM (active)
IC50 [8]: 23.5 µM (active)
IC50 [9]: 9.58 µM (active)
IC50 [10]: 2.56 µM (active)

Cc1ccc(-c2nnc(C)c3nn(-c4ccc(C)cc4)cc23)cc1
EC50 [11]: > 32 µM (inactive)
EC50 (Cannabinoid receptor 1 [12]): > 32 µM (inactive)
IC50 [13]: 15.4 µM (inactive)
IC50 (Cannabinoid receptor 1 [14]): 2.59 µM (active)
IC50 [15]: > 32 µM (inactive)
IC50 (Cannabinoid receptor 2 [16]): > 18 µM (inactive)
EC50 (Cannabinoid receptor 2 [17]): > 32 µM (inactive)

CC(C)(C)CCN1CCC[C@@H](NC(=O)c2cc(Cl)cc(Cl)c2)C1
EC50 [18]: 10 µM (active)

COc1ccc(CNCCC(c2ccc(F)cc2)c2ccc(OC)cc2)cc1 (configuration not stated)
IC50 [19]: 1.78 µM (active)
IC50 (Cannabinoid receptor 1 [20]): 2.7 µM (active)
EC50 [21]: 23.1 µM (inactive)
IC50 (Cannabinoid receptor 2 [22]): 24.2 µM (inactive)
EC50 (Cannabinoid receptor 1 [23]): > 32 µM (inactive)
IC50 [24]: > 32 µM (inactive)
IC50 [25]: 1.69 µM (active)
EC50 (Cannabinoid receptor 2 [26]): > 32 µM (inactive)
AC50 [27]: 9.89 µM (active)
AC50 (A-375): 16.3 µM (active)
